Reference: article PMC2410173, “Pharmacokinetics and efficacy of 2-methoxyoestradiol and 2-methoxyoestradiol-bis-sulphamate in vivo in rodents” (British Journal of Cancer, 2004)
“Also recorded” adds a separate entry of the source. Like-named read-outs stand apart in the source and are kept apart here.

Tests used:
steroid sulphatase [1] = molecular target: T1, steroid sulphatase (Rattus norvegicus, UniProt P15589); assay: Liver oestrone sulphatase activity after in vivo dosing
T1 construct: Livers were obtained from animals administered with 2-MeOE2 or 2-MeOE2bisMATE either orally or intravenously, to assess their effects on steroid sulphatase activity; from tissue; host or cells: liver of female Wistar rats
T1 sequence (P15589 20-577): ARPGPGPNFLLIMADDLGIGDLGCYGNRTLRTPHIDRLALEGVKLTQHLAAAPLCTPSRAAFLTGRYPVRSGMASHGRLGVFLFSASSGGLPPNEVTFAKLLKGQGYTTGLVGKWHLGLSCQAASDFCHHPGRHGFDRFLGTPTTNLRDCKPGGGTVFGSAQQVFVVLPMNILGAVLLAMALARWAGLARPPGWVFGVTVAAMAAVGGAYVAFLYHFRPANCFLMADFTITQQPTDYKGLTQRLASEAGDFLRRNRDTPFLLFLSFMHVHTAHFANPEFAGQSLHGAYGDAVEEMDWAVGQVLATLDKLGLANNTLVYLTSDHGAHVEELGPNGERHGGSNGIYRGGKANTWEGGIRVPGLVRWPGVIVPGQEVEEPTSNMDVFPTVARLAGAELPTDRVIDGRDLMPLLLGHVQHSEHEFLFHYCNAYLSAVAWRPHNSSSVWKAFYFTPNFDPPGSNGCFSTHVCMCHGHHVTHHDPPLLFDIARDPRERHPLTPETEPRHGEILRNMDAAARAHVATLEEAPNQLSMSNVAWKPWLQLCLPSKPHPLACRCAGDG
Description: Livers were obtained from animals administered with 2-MeOE2 or 2-MeOE2bisMATE either orally or intravenously, to assess their effects on steroid sulphatase activity. Steroid sulphatase activity was measured as described previously ([Purohit et al, 1995]).

[2] = Body masses of xenograft-bearing mice as an indicator of toxicity; type: in vivo, mouse; conditions: nude mice, 20 mg kg^−1 oral daily for 28 days
Description: (§1) To compare the anticancer effects of 2-MeOE2 and 2-MeOE2bisMATE, xenografts derived from MDA-MB-435 (ER−) human melanoma cells were transplanted into female nude mice with eight mice per group. These studies were carried out by Anti-Cancer Inc. (San Diego, CA, USA). Treatment was initiated when tumour volumes reached 100–200 mm^3. Drugs were dissolved in a minimum volume of THF, diluted with propylene glycol and administered at 20 mg kg^−1, oral, daily for 28 days. The length (l) and width (w) of tumours was measured at weekly intervals, from which the tumour volumes were calculated using the formula (l × w^2/2). Monitoring of tumour volumes continued for a further 28-day period after the end of drug administration. The body masses of control and treated animals were also measured at weekly intervals as an indicator of any toxicity that might be associated with the use of these drugs.

[3] = Pharmacokinetics and metabolism in rat plasma after a single intravenous or oral dose (HPLC); type: in vivo
Description: Female Wistar (155–165 g) rats were purchased from Charles River UK Ltd (Margate, Kent, UK) and housed in a dedicated animal facility. Rats received RM1 rodent maintenance diet (SDS, Kent, UK), water ad libitum, and were maintained in positive pressure isolators under a 12 h light–dark cycle. These experiments were carried out under conditions that complied with institutional requirements. Rats received 2-MeOE2 or 2-MeOE2bisMATE (10 mg kg^−1, oral or intravenous), with control animals receiving vehicle only (propylene glycol: THF, 9 : 1 v v^−1). There were two reasons for selecting 10 mg kg^−1 for both oral and intravenous dosing. […] Rats were subjected to terminal anaesthesia (Halothane) and blood removed by cardiac puncture at 5, 15 and 30 min and 1, 3, 8 and 24 h after intravenous administration, and 15 and 30 min and 1, 3, 8, 24 and 48h following oral administration of 2-MeOE2 or 2-MeOE2bisMATE. Plasma was prepared from whole blood by centrifugation (2800 g, 4°C, 15 min). Plasma (0.5 ml) was extracted with diethyl ether (4 ml) and frozen in a methanol : solid carbon dioxide mixture. 17α-Epitestosterone (28 μg ml^−1) was used as an internal standard after purification by HPLC. The organic phase was decanted to a fresh tube and evaporated to dryness under a stream of air at room temperature. The extraction efficiencies for 2-MeOE2 and 2-MeOE2bisMATE from plasma were 71±5 and 75±4% (n=6), respectively. The residues were stored at −20°C until analysis by HPLC.
2-MeOE2bisMATE was separated from its putative metabolites, 2-MeOE2, 2-MeOE2-3MATE and 2-MeOE2-17MATE, using a modified version of a reversed-phase HPLC method described previously ([Hildago Aragones et al, 1996]). An Agilent 1100 (Cheshire, UK) autosampler, photodiode array detector and solvent delivery system were used. The agents were separated from endogenous plasma components by an isocratic mobile phase consisting of 58% methanol in 0.02 M ammonium sulphate. Sodium azide (1 mM) was added to the mobile phase in order to decrease microbial growth. Extracted samples were reconstituted in mobile phase and aliquots of 100 μl were injected on to a C3-phenyl column (250 × 5 mm, 5 μm) purchased from Phenomenex (Cheshire, UK). 2-Methoxyoestradiol-bis-sulphamate, 2-MeOE2 and their metabolites were analysed with a photodiode array detector with detection at 285 nm. The method was validated by spiking plasma with 2-MeOE2bisMATE (960 ng ml^−1). The inter-day and intra-day coefficients of variation were 8.2% (n=6) and 3.8% (n=6), respectively. Quantification was achieved by spiking plasma with 2-MeOE2bisMATE and the internal standard 17α-epitestosterone, extraction with diethyl ether and subsequent analysis by HPLC. […] The limits of detection (LODs) and quantification of 2-MeOE2bisMATE in plasma were 11 and 40 ng ml^−1, respectively.
Pharmacokinetic parameters were calculated using WinNonlin software (Pharsight Corporation, Mountview, CA, USA). The area under the curve (AUC) was calculated using the linear trapezoidal method, with extrapolation of the terminal phase to infinity. Other parameters calculated were: distribution and elimination rate constants (α and β); total body clearance (Cl)=dose/AUC; volume of distribution (Vd)=Cl/β; distribution half-life (t1/2α)=0.693/α; elimination half-life (t1/2β)=0.693/β; bioavailability (% F=(AUCoral/AUCi.v) × 100).

[4] = test system: MDA-MB-435 (ER−) human melanoma cells xenografts; assay: In vivo inhibition of tumour growth, MDA-MB-435 xenografts in nude mice; set-up: species or system mouse; conditions: 20 mg kg^−1 oral daily for 28 days; for effect on tumour growth / tumour volumes versus control: treatment and post-dosing periods
Description: as §1
Student's t-test was used to assess the significance of differences in tumour volumes between control and treated animals.

[5] = test system: human umbilical vein endothelial cell (HUVEC); set-up: method as in Newman et al, 2004; conditions: in vitro; ref Newman et al, 2004; cited from earlier work
[6] = in vivo; cited from earlier work
steroid sulphatase [7] = molecular target: T1, steroid sulphatase; set-up: method as in Purohit et al, 1995; conditions: single dose 10 mg kg^−1 oral or intravenous; ref Purohit et al, 1995; cited from earlier work
[8] = female, Wistar, in vivo, iv, 10 mg/kg
[9] = female, Wistar, in vivo, po, 10 mg/kg

For `COc1cc2c(cc1O)CC[C@@H]1[C@@H]2CC[C@]2(C)[C@@H](O)CC[C@@H]12` [2-MeOE2, 2-Methoxyoestradiol], the “inhibition of hepatic sulphatase activity compared with control animals” value (steroid sulphatase [1]; rat liver, single oral or intravenous dose 10 mg kg^−1) was “did not affect”, the body weights [2] was “No decreases” and the “% F (bioavailability)” value ([3]; 10 mg kg^−1, (AUCoral/AUCi.v) × 100) was “very low”. For the same molecule, the plasma concentration ([3]; 1 h after 10 mg kg^−1 intravenous bolus, LOD 11 ng ml^−1) was “below the LOD”, the “level in plasma as putative metabolite of 2-MeOE2bisMATE” value ([3]; after oral or intravenous 2-MeOE2bisMATE 10 mg kg^−1) was “not above the LOD” and the concentration at 1 h ([3]; female, Wistar, plasma, iv, 10 mg kg^−1, rat, 1 h after 10 mg kg^−1 intravenous bolus, LOD 11 ng ml^−1) was less than 11 ng/mL. For the same molecule, the half-life ([3]; female, Wistar, plasma, iv, 10 mg kg^−1, rat, after intravenous administration, read-out: half-life in plasma) was roughly 0.233 h and the “effect on tumour growth / tumour volumes versus control” value [4] was “did not inhibit tumour growth; also recorded: no significant effect”.
For `COc1cc2c(cc1OS(N)(=O)=O)CCC1C2CC[C@]2(C)C(OS(N)(=O)=O)CCC12` (stereo partly drawn) [2-MeOE2bisMATE, 2-methoxyoestradiol-bis-sulphamate], the “time for which inhibition of sulphatase activity was maintained” value (steroid sulphatase [1]; rat liver, after single dose) was 48 h, the “inhibition of steroid sulphatase activity” value (steroid sulphatase [1]; rat liver, within 5 min of intravenous dosing) was greater than 99% and the “inhibition of steroid sulphatase activity” value (steroid sulphatase [1]; rat liver, within 15 min of oral dosing) was greater than 99%. The inhibition at 10 mg/kg (steroid sulphatase [1]; rat, read-out: inhibition of hepatic sulphatase activity compared with control animals) was 99.5 ± 0.5%, the “potency relative to 2-MeOE2 in HUVEC growth inhibition” value [5] was 60 fold and the plasma concentrations detected ([3]; female, Wistar, in vivo) was “up to 5 μM”. It also gave a bioavailability ([3]; female, Wistar, in vivo, 10 mg/kg, % F (bioavailability)) of 85%, an AUC [3, 8] of 514 ± 154 µg·h/mL and a Cmax [3, 8] of 6550 ± 920 ng/mL. The Vd [3, 8] was 0.28 ± 0.09 L, the clearance [3, 8] was 0.833 mL/min and the half-life ([3]; female, Wistar, in vivo, iv, 10 mg/kg, t1/2α (distribution half-life)) was 0.22 ± 0.1 h. The half-life ([3]; female, Wistar, in vivo, iv, 10 mg/kg, t1/2β (terminal half-life)) was 8.5 ± 1.16 h, the “time for which compound was detectable in plasma” value ([3]; female, Wistar, in vivo, po) was “at least 24 h” and the AUC [3, 9] was 389 ± 28.8 µg·h/mL. For the same molecule, the Cl [3, 9] was 0.036 ± 0.001 L/h, the Cmax [3, 9] was 3900 ± 250 ng/mL and the Vd [3, 9] was 0.35 ± 0.02 L. For the same molecule, the half-life ([3]; female, Wistar, in vivo, po, 10 mg/kg, t1/2β (terminal plasma half-life)) was 6.51 ± 1.09 h, the plasma concentration ([3]; female, Wistar, in vivo, po, 24 h) was 450 ng/mL and the “effect on tumour growth / tumour volumes versus control” value [4] was “almost completely inhibited tumour growth; also recorded: significantly smaller”. For the same molecule, the “mean tumour volume as % of tumour volume in control animals” value ([4]; at 4 weeks, end of dosing) was 14% and the “difference in tumour volumes versus control group” value ([4]; maintained for a further 4 weeks after cessation) was 86%.
For `C[C@]12CC[C@@H]3c4ccc(OS(N)(=O)=O)cc4CC[C@H]3[C@@H]1CCC2=O` [EMATE, oestrone-3-O-sulphamate], the half-life in plasma [6] is listed as 4.5 h and the “inhibition of rat liver sulphatase” value (steroid sulphatase [7]) is listed as “at least 99%”.
